Data from paper PMC10460844, “Real‐Time Monitoring of Multitarget Antimicrobial Mechanisms of Peptoids Using Label‐Free Imaging with Optical Diffraction Tomography” (Advanced Science, 2023).
Square brackets hold non-standard residues; d marks the D form. Peptide text beside a SMILES is read from it. Gly(N(CH2)2(3-indolyl)) = O=C(O)CNCCc1c[nH]c2ccccc12; Nspe = C[C@H](NCC(=O)O)c1ccccc1; Nphe = O=C(O)CNCc1ccccc1; Nlys = NCCCCNCC(=O)O

What was measured:
[1] = test system: rat erythrocytes; experiment: Hemolysis assay; type: cell-based; conditions: for HC10 / HC50: pH 7.4
Outline: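 Washed Sprague-Dawley rat erythrocytes (10% suspension in PBS pH 7.4) mixed with peptoids (0–100 µM), 60 min at 37 °C; supernatant A540 expressed as % of 1% Triton X-100 lysis. HC10/HC50 are concentrations giving 10%/50% hemolysis; Hmax is hemolysis at 100 µM.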

[2] = Analytical reversed-phase HPLC elution (hydrophobicity); type: physicochemical; conditions: Table S1; analytical RP-HPLC, SunFire C18, water/ACN + 0.1% TFA, 5 to 100% B linear over 30 min, 1 mL/min, UV 220 nm; approximate comparison of hydrophobicity
Outline: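 Retention time (tR) reflects hydrophobicity, with detection at 220 nm. Elution used a 5–100% acetonitrile linear gradient over 30 min after a 2 min hold at 5%, then 5 min at 100%, with both phases containing 0.1% TFA. Column was an analytical C18 (4.6 × 250 mm, 5 μm) run at 1 mL/min.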

HPLC elution [2] [% MeCN]	SMILES	Hmax (100 µM) [1] [%]	HC10 [1] [µM]	HC50 [1] [µM]
47.8	C[C@@H](c1ccccc1)N(CC(=O)N(CCCCN)CC(=O)N(CCCCN)CC(=O)N(CC(=O)N(CC(=O)N(CCCCN)CC(=O)N(CC(=O)N(CC(=O)N(CCCCN)CC(N)=O)[C@@H](C)c1ccccc1)[C@@H](C)c1ccccc1)[C@@H](C)c1ccccc1)[C@@H](C)c1ccccc1)C(=O)CN(CCCCN)C(=O)CN(CCc1c[nH]c2ccccc12)C(=O)CNCCc1c[nH]c2ccccc12 [peptoid 38] (H-[Gly(N(CH2)2(3-indolyl))][Gly(N(CH2)2(3-indolyl))][Nlys][Nspe][Nlys][Nlys][Nspe][Nspe][Nlys][Nspe][Nspe][Nlys]-NH2)	5.9±0.5	> 100	> 100
53.1	C[C@@H](c1ccccc1)N(CC(=O)N(CCCCN)CC(=O)N(CC(=O)N(CC(=O)N(CCCCN)CC(=O)N(CC(=O)N(CC(=O)N(CCCCN)CC(=O)N(CC(=O)N(CC(N)=O)Cc1ccccc1)Cc1ccccc1)[C@@H](C)c1ccccc1)[C@@H](C)c1ccccc1)[C@@H](C)c1ccccc1)[C@@H](C)c1ccccc1)C(=O)CN(C(=O)CNCCCCN)[C@@H](C)c1ccccc1 [peptoid 44] (H-[Nlys][Nspe][Nspe][Nlys][Nspe][Nspe][Nlys][Nspe][Nspe][Nlys][Nphe][Nphe]-NH2)	97.9±3.7	6.3	28.6
52.4	C[C@@H](c1ccccc1)N(CC(N)=O)C(=O)CN(C(=O)CN(CCCCN)C(=O)CN(C(=O)CN(C(=O)CN(CCCCN)C(=O)CN(C(=O)CN(C(=O)CN(CCCCN)C(=O)CN(C(=O)CN(CCCCN)C(=O)CN(CCCCN)C(=O)CN(CCc1c[nH]c2ccccc12)C(=O)CNCCc1c[nH]c2ccccc12)[C@@H](C)c1ccccc1)[C@@H](C)c1ccccc1)[C@@H](C)c1ccccc1)[C@@H](C)c1ccccc1)[C@@H](C)c1ccccc1)[C@@H](C)c1ccccc1 [peptoid 36]	89.1±3.4	15.3	39.4
57.0	C[C@@H](c1ccccc1)N(CC(=O)N(CCCCN)CC(=O)N(CC(=O)N(CC(=O)N(CCCCN)CC(=O)N(CC(=O)N(CC(=O)N(CCCCN)CC(=O)N(CC(=O)N(CC(=O)N(CCc1c[nH]c2ccccc12)CC(N)=O)[C@@H](C)c1ccccc1)[C@@H](C)c1ccccc1)[C@@H](C)c1ccccc1)[C@@H](C)c1ccccc1)[C@@H](C)c1ccccc1)[C@@H](C)c1ccccc1)C(=O)CN(C(=O)CNCCCCN)[C@@H](C)c1ccccc1 [peptoid 4] (H-[Nlys][Nspe][Nspe][Nlys][Nspe][Nspe][Nlys][Nspe][Nspe][Nlys][Nspe][Nspe][Gly(N(CH2)2(3-indolyl))]-NH2)	103.2±0.9	< 6.3	6.7
54.7	C[C@@H](c1ccccc1)N(CC(=O)N(CCc1c[nH]c2ccccc12)CC(=O)N(CCCCN)CC(=O)N(CC(=O)N(CC(=O)N(CCCCN)CC(=O)N(CC(=O)N(CC(=O)N(CCCCN)CC(=O)N(CC(=O)N(CCc1c[nH]c2ccccc12)CC(N)=O)[C@@H](C)c1ccccc1)[C@@H](C)c1ccccc1)[C@@H](C)c1ccccc1)[C@@H](C)c1ccccc1)[C@@H](C)c1ccccc1)C(=O)CNCCCCN [peptoid 16] (H-[Nlys][Nspe][Gly(N(CH2)2(3-indolyl))][Nlys][Nspe][Nspe][Nlys][Nspe][Nspe][Nlys][Nspe][Gly(N(CH2)2(3-indolyl))]-NH2)	100.3±1.7	13.8	25.0
51.2	C[C@@H](c1ccccc1)N(CC(=O)N(CCCCN)CC(=O)N(CC(=O)N(CC(=O)N(CCCCN)CC(=O)N(CC(=O)N(CC(=O)N(CCCCN)CC(=O)N(CC(=O)N(CC(=O)N(CCCCN)CC(=O)N(CCCCN)CC(N)=O)[C@@H](C)c1ccccc1)[C@@H](C)c1ccccc1)[C@@H](C)c1ccccc1)[C@@H](C)c1ccccc1)[C@@H](C)c1ccccc1)[C@@H](C)c1ccccc1)C(=O)CNCCc1c[nH]c2ccccc12 [peptoid 61] (H-[Gly(N(CH2)2(3-indolyl))][Nspe][Nlys][Nspe][Nspe][Nlys][Nspe][Nspe][Nlys][Nspe][Nspe][Nlys][Nlys]-NH2)	79.9±0.7	19.3	65.4
57.7	C[C@@H](c1ccccc1)N(CC(=O)N(CCCCN)CC(=O)N(CC(=O)N(CC(=O)N(CCCCN)CC(=O)N(CC(=O)N(CC(=O)N(CCCCN)CC(=O)N(CC(=O)N(CC(=O)N(CC(N)=O)Cc1ccccc1)[C@@H](C)c1ccccc1)[C@@H](C)c1ccccc1)[C@@H](C)c1ccccc1)[C@@H](C)c1ccccc1)[C@@H](C)c1ccccc1)[C@@H](C)c1ccccc1)C(=O)CN(C(=O)CN(CCCCN)C(=O)CNCc1ccccc1)[C@@H](C)c1ccccc1 [peptoid 42] (H-[Nphe][Nlys][Nspe][Nspe][Nlys][Nspe][Nspe][Nlys][Nspe][Nspe][Nlys][Nspe][Nspe][Nphe]-NH2)	105.9±1.1	< 3.1	6.6
50.2	C[C@@H](c1ccccc1)N(CC(=O)N(CCCCN)CC(=O)N(CC(=O)N(CC(=O)N(CCCCN)CC(=O)N(CC(=O)N(CC(=O)N(CCCCN)CC(=O)N(CCc1c[nH]c2ccccc12)CC(=O)N(CCc1c[nH]c2ccccc12)CC(N)=O)[C@@H](C)c1ccccc1)[C@@H](C)c1ccccc1)[C@@H](C)c1ccccc1)[C@@H](C)c1ccccc1)C(=O)CN(CCCCN)C(=O)CNCCCCN [peptoid 31] (H-[Nlys][Nlys][Nspe][Nlys][Nspe][Nspe][Nlys][Nspe][Nspe][Nlys][Gly(N(CH2)2(3-indolyl))][Gly(N(CH2)2(3-indolyl))]-NH2)	18.4±5.0	59.0	> 100
47.9	C[C@@H](c1ccccc1)N(CC(N)=O)C(=O)CN(C(=O)CN(CCCCN)C(=O)CN(C(=O)CN(CCCCN)C(=O)CN(CCCCN)C(=O)CN(C(=O)CN(C(=O)CN(CCCCN)C(=O)CN(CCc1c[nH]c2ccccc12)C(=O)CN(CCc1c[nH]c2ccccc12)C(=O)CNCCCCN)[C@@H](C)c1ccccc1)[C@@H](C)c1ccccc1)[C@@H](C)c1ccccc1)[C@@H](C)c1ccccc1 [peptoid 33]	5.0±0.2	> 100	> 100
47.5	C[C@@H](c1ccccc1)N(CC(=O)N(CCCCN)CC(=O)N(CCc1c[nH]c2ccccc12)CC(=O)N(CCc1c[nH]c2ccccc12)CC(N)=O)C(=O)CN(CCCCN)C(=O)CN(CCCCN)C(=O)CN(C(=O)CN(C(=O)CN(CCCCN)C(=O)CN(Cc1ccccc1)C(=O)CN(Cc1ccccc1)C(=O)CNCCCCN)[C@@H](C)c1ccccc1)[C@@H](C)c1ccccc1 [peptoid 41] (H-[Nlys][Nphe][Nphe][Nlys][Nspe][Nspe][Nlys][Nlys][Nspe][Nlys][Gly(N(CH2)2(3-indolyl))][Gly(N(CH2)2(3-indolyl))]-NH2)	7.1±0.1	> 100	> 100
55.8	C[C@@H](c1ccccc1)N(CC(N)=O)C(=O)CN(C(=O)CN(CCCCN)C(=O)CN(C(=O)CN(C(=O)CN(CCCCN)C(=O)CN(C(=O)CN(C(=O)CN(CCCCN)C(=O)CN(C(=O)CN(C(=O)CN(CCCCN)C(=O)CNCCc1c[nH]c2ccccc12)[C@@H](C)c1ccccc1)[C@@H](C)c1ccccc1)[C@@H](C)c1ccccc1)[C@@H](C)c1ccccc1)[C@@H](C)c1ccccc1)[C@@H](C)c1ccccc1)[C@@H](C)c1ccccc1 [peptoid 3]	100.5±9.9	6.3	13.9
54.1	C[C@@H](c1ccccc1)N(CC(=O)N(CCc1c[nH]c2ccccc12)CC(N)=O)C(=O)CN(CCCCN)C(=O)CN(C(=O)CN(C(=O)CN(CCCCN)C(=O)CN(C(=O)CN(C(=O)CN(CCCCN)C(=O)CN(C(=O)CN(C(=O)CNCCCCN)[C@@H](C)c1ccccc1)[C@@H](C)c1ccccc1)[C@@H](C)c1ccccc1)[C@@H](C)c1ccccc1)[C@@H](C)c1ccccc1)[C@@H](C)c1ccccc1 [peptoid 7] (H-[Nlys][Nspe][Nspe][Nlys][Nspe][Nspe][Nlys][Nspe][Nspe][Nlys][Nspe][Gly(N(CH2)2(3-indolyl))]-NH2)	94.1±4.3	7.8	23.8
53.7	C[C@@H](c1ccccc1)N(CC(N)=O)C(=O)CN(C(=O)CN(CCCCN)C(=O)CN(C(=O)CN(C(=O)CN(CCCCN)C(=O)CN(C(=O)CN(C(=O)CN(CCCCN)C(=O)CN(Cc1ccccc1)C(=O)CN(Cc1ccccc1)C(=O)CNCCCCN)[C@@H](C)c1ccccc1)[C@@H](C)c1ccccc1)[C@@H](C)c1ccccc1)[C@@H](C)c1ccccc1)[C@@H](C)c1ccccc1 [peptoid 46]	90.8±2.7	6.9	36.5
50.8	C[C@@H](c1ccccc1)N(CC(N)=O)C(=O)CN(CCCCN)C(=O)CN(C(=O)CN(CCCCN)C(=O)CN(CCCCN)C(=O)CN(C(=O)CN(C(=O)CN(CCCCN)C(=O)CN(C(=O)CN(C(=O)CN(CCCCN)C(=O)CN(C(=O)CNCCc1c[nH]c2ccccc12)[C@@H](C)c1ccccc1)[C@@H](C)c1ccccc1)[C@@H](C)c1ccccc1)[C@@H](C)c1ccccc1)[C@@H](C)c1ccccc1)[C@@H](C)c1ccccc1 [peptoid 62]	44.8±8.1	36.2	> 100
